Source: PubChem BioAssay AID330 (DTP/NCI, 2004)
“And” between values parts separate entries of the source, which are not always exact repeats. Equal values may be shown once. Inconclusive results and toxic doses are left out. Rule for the calls: active = survival T/C of 150% or more; inactive = T/C below 125% in these data.

Tested on: P388 leukemia ip, CD2F1 mice, survival T/C
Assay: NCI In Vivo Anticancer Drug Screen. Data for tumor model P388 Leukemia (intraperitoneal) in CD2F1 (CDF1) mice
Conditions: endpoint: median survival time, higher = longer survival
Outline: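 Mice carrying the transplanted tumor received test compound or vehicle. Survival was recorded in each group, and the value is the treated-group measurement divided by that of the vehicle-treated control group.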

[1] = dose: 12.5 mg/kg/injection, schedule: Q01DX009 (ip), vehicle: other
[2] = dose: 25.0 mg/kg/injection, schedule: Q01DX009 (ip), vehicle: other
[3] = dose: 50.0 mg/kg/injection, schedule: Q01DX009 (ip), vehicle: other
[4] = dose: 100.0 mg/kg/injection, schedule: Q01DX009 (ip), vehicle: other
[5] = dose: 200.0 mg/kg/injection, schedule: Q01DX009 (ip), vehicle: other
[6] = dose: 60.0 mg/kg/injection, schedule: Q01DX005 (ip), vehicle: saline with Tween-80
[7] = dose: 120.0 mg/kg/injection, schedule: Q01DX005 (ip), vehicle: saline with Tween-80
[8] = dose: 240.0 mg/kg/injection, schedule: Q01DX005 (ip), vehicle: saline with Tween-80
[9] = dose: 25.0 mg/kg/injection, schedule: Q01DX005 (ip), vehicle: saline
[10] = dose: 50.0 mg/kg/injection, schedule: Q01DX005 (ip), vehicle: saline with Tween-80
[11] = dose: 25.0 mg/kg/injection, schedule: Q01DX005 (ip), vehicle: Klucel (hydroxypropylcellulose) (HPC)
[12] = dose: 50.0 mg/kg/injection, schedule: Q01DX005 (ip), vehicle: Klucel (hydroxypropylcellulose) (HPC)
[13] = dose: 100.0 mg/kg/injection, schedule: Q01DX005 (ip), vehicle: Klucel (hydroxypropylcellulose) (HPC)
[14] = dose: 200.0 mg/kg/injection, schedule: Q01DX005 (ip), vehicle: Klucel (hydroxypropylcellulose) (HPC)
[15] = dose: 100.0 mg/kg/injection, schedule: Q01DX005 (ip), vehicle: saline with Tween-80
[16] = dose: 25.0 mg/kg/injection, schedule: Q01DX009 (ip), vehicle: saline with Tween-80
[17] = dose: 50.0 mg/kg/injection, schedule: Q01DX009 (ip), vehicle: saline with Tween-80

Measured: T/C

O=C(NC(CCSSCCC(NC(=O)OCc1ccccc1)C(=O)O)C(=O)O)OCc1ccccc1 (stereo unspecified)
inactive: [1] 98 % of control | [2] 98 % of control | [3] 101 % of control | [4] 100 % of control | [5] 103 % of control

Cc1ccc(S(=O)(=O)N/N=C/c2c(-c3ccc(-c4ccccc4)cc3)nc3n2CCS3)cc1
inactive: dose: 100.0 mg/kg/injection, schedule: Q01DX001 (ip), vehicle: saline with Tween-80 100 % of control | dose: 200.0 mg/kg/injection, schedule: Q01DX001 (ip), vehicle: saline with Tween-80 102 % of control | dose: 400.0 mg/kg/injection, schedule: Q01DX001 (ip), vehicle: saline with Tween-80 90 % of control

CCCN1C(=O)CC(c2ccc(OC)c(OC)c2)C1=O (stereo unspecified)
inactive: [6] 90 % of control | [7] 90 % of control | [8] 90 % of control

COc1ccc(C2CC(C)(N3CCCC3)Oc3cc4c(cc32)OCO4)cc1 (stereo unspecified)
inactive: [6] 101 % of control | [7] 92 % of control | [8] 98 % of control

Fc1ccc(CSC(=S)Nc2cccc(F)c2)cc1
inactive: dose: 50.0 mg/kg/injection, schedule: Q01DX009 (ip), vehicle: suspension in saline 90 % of control | dose: 100.0 mg/kg/injection, schedule: Q01DX009 (ip), vehicle: suspension in saline 103 % of control | dose: 200.0 mg/kg/injection, schedule: Q01DX009 (ip), vehicle: suspension in saline 107 % of control

C=C1CCC(=O)NC1=O
inactive: dose: 6.25 mg/kg/injection, schedule: Q01DX005 (ip), vehicle: saline 105 % of control | dose: 12.5 mg/kg/injection, schedule: Q01DX005 (ip), vehicle: saline 102 % of control | [9] 99 % of control | [10] 116 % of control

CCOC(CSCC#N)OCC
inactive: dose: 12.5 mg/kg/injection, schedule: Q01DX009 (ip), vehicle: saline sonified 100 % of control | dose: 25.0 mg/kg/injection, schedule: Q01DX009 (ip), vehicle: saline sonified 95 % of control | dose: 50.0 mg/kg/injection, schedule: Q01DX009 (ip), vehicle: saline sonified 100 % of control

COC(=O)/C(C#N)=C/c1cc(OC)c(O)cc1Br
inactive: [11] 104 % of control | [12] 104 % of control and 88 % of control | [13] 105 % of control | [14] 100 % of control

N=C1SCC(=O)C1C(=O)O (stereo unspecified)
inactive: [10] 105 % of control | [15] 119 % of control | dose: 200.0 mg/kg/injection, schedule: Q01DX005 (ip), vehicle: saline with Tween-80 110 % of control

Cc1ccc(S(=O)(=O)Nc2nnc(NS(=O)(=O)c3ccc(C)cc3)nn2)cc1
inactive: [1] 96 % of control | [2] 96 % of control | [3] 96 % of control | [4] 91 % of control | [5] 94 % of control

COSc1ccc([N+](=O)[O-])cc1
inactive: dose: 100.0 mg/kg/injection, schedule: Q04DX003 (ip), vehicle: Klucel (hydroxypropylcellulose) (HPC) 108 % of control | dose: 200.0 mg/kg/injection, schedule: Q04DX003 (ip), vehicle: Klucel (hydroxypropylcellulose) (HPC) 102 % of control | dose: 400.0 mg/kg/injection, schedule: Q04DX003 (ip), vehicle: Klucel (hydroxypropylcellulose) (HPC) 99 % of control

CC(=O)Nc1ccc(Cl)cc1C(Cl)c1ccccc1 (stereo unspecified)
inactive: dose: 12.5 mg/kg/injection, schedule: Q01DX005 (ip), vehicle: Klucel (hydroxypropylcellulose) (HPC) 109 % of control | [11] 118 % of control | [12] 123 % of control and 124 % of control | [13] 115 % of control

C=Cc1nc(N)nc(-c2ccc(C)cc2)n1
inactive: [12] 110 % of control | [13] 111 % of control | [14] 118 % of control

N#CNC(=S)S
inactive: dose: 100.0 mg/kg/injection, schedule: Q04DX002 (ip), vehicle: saline 105 % of control | dose: 200.0 mg/kg/injection, schedule: Q04DX002 (ip), vehicle: saline 109 % of control | dose: 400.0 mg/kg/injection, schedule: Q04DX002 (ip), vehicle: saline 105 % of control

S=c1nc(N(c2ccccc2)c2ccccc2)[nH]s1
inactive: dose: 12.5 mg/kg/injection, schedule: Q01DX009 (ip), vehicle: saline with Tween-80 104 % of control | [16] 101 % of control | [17] 93 % of control

Cc1cnc2cc(Cl)ccc2c1Cl
inactive: [12] 101 % of control | [13] 100 % of control | [14] 103 % of control

NC(=O)NC(=O)CCl
inactive: dose: 25.0 mg/kg/injection, schedule: Q01DX009 (ip), vehicle: Klucel (hydroxypropylcellulose) (HPC) 105 % of control and 94 % of control | dose: 50.0 mg/kg/injection, schedule: Q01DX009 (ip), vehicle: Klucel (hydroxypropylcellulose) (HPC) 103 % of control and 122 % of control and 94 % of control

Cc1noc(-c2ccccc2)c1N=Nc1ccccc1
inactive: dose: 100.0 mg/kg/injection, schedule: Q01DX001 (ip), vehicle: Klucel (hydroxypropylcellulose) (HPC) 99 % of control | dose: 200.0 mg/kg/injection, schedule: Q01DX001 (ip), vehicle: Klucel (hydroxypropylcellulose) (HPC) 105 % of control | dose: 400.0 mg/kg/injection, schedule: Q01DX001 (ip), vehicle: Klucel (hydroxypropylcellulose) (HPC) 93 % of control

O=C1CC(c2ccccc2)NCCC2CN(CCCN1)C(=O)c1ccccc12 (stereo unspecified)
inactive: dose: 16.25 mg/kg/injection, schedule: Q01DX005 (ip), vehicle: Klucel (hydroxypropylcellulose) (HPC) 100 % of control | dose: 32.5 mg/kg/injection, schedule: Q01DX005 (ip), vehicle: Klucel (hydroxypropylcellulose) (HPC) 100 % of control | dose: 65.0 mg/kg/injection, schedule: Q01DX005 (ip), vehicle: Klucel (hydroxypropylcellulose) (HPC) 100 % of control | dose: 130.0 mg/kg/injection, schedule: Q01DX005 (ip), vehicle: Klucel (hydroxypropylcellulose) (HPC) 100 % of control

CS(=O)(=O)C(c1nc2n(c1O)C(=N)N=N2)c1nc2n(c1O)C(=N)N=N2 (stereo unspecified)
inactive: dose: 60.0 mg/kg/injection, schedule: Q01DX005 (ip), vehicle: saline 99 % of control | dose: 120.0 mg/kg/injection, schedule: Q01DX005 (ip), vehicle: saline 100 % of control | dose: 240.0 mg/kg/injection, schedule: Q01DX005 (ip), vehicle: saline 105 % of control

CCN(CC)CCN1C(=O)c2cccc3c(N)c(OC)cc(c23)C1=O
inactive: [9] 103 % of control | dose: 50.0 mg/kg/injection, schedule: Q01DX005 (ip), vehicle: saline 100 % of control and 97 % of control | dose: 100.0 mg/kg/injection, schedule: Q01DX005 (ip), vehicle: saline 100 % of control and 104 % of control

C/C(=C\C(=O)c1ccccc1)Nc1ccc(Cl)cc1
inactive: [16] 108 % of control | [17] 92 % of control | dose: 100.0 mg/kg/injection, schedule: Q01DX009 (ip), vehicle: saline with Tween-80 89 % of control | dose: 200.0 mg/kg/injection, schedule: Q01DX009 (ip), vehicle: saline with Tween-80 99 % of control

CN1NC(c2ccccc2)=C(C#N)C(=O)CC1c1ccc(Cl)cc1 (stereo unspecified)
inactive: dose: 3.75 mg/kg/injection, schedule: Q01DX005 (ip), vehicle: saline with Tween-80 117 % of control | dose: 7.5 mg/kg/injection, schedule: Q01DX005 (ip), vehicle: saline with Tween-80 100 % of control and 101 % of control and 113 % of control

Cc1cc(-c2ccc(Oc3ccc(Br)cc3)cc2)n[nH]c1=O
inactive: [12] 99 % of control | [13] 104 % of control | [14] 96 % of control

Cc1ncc2c(n1)CCC1=C2OS(=O)(=O)CC1N(C)C (stereo unspecified)
inactive: [10] 115 % of control | [15] 97 % of control
